Measurements: ChEMBL document CHEMBL5532643, “Design and synthesis of etrasimod derivatives as potent antibacterial agents against Gram-positive bacteria” (Eur J Med Chem, 2024)
Values after ≈ are worked out from the molar mass of the structure shown. Active and inactive are the calls of the source. The calls are words filed in the database; no cut-off is given here.

Columns and labels:
Staphylococcus aureus [1] = experiment: Synergistic antibacterial activity against Staphylococcus aureus ATCC 25923 incubated for 18 to 20 hrs in presence of linezolid by checkboard assay; format: functional; conditions: time 18-20 hrs
Staphylococcus aureus [2] = experiment: Antibacterial activity against Staphylococcus aureus ATCC 43300 assessed as reduction in bacterial growth incubated for 18 to 20 hrs by broth microdilution assay; format: functional; conditions: time 18-20 hrs
Staphylococcus aureus [3] = experiment: Synergistic antibacterial activity against Staphylococcus aureus ATCC 25923 incubated for 18 to 20 hrs in presence of vancomycin by checkboard assay; format: functional; conditions: time 18-20 hrs
[4] = Selectivity index, ratio of CC50 for cytotoxicity against human THP-1 cells assessed as reduction in cell viability to MIC for antibacterial activity against Staphylococcus aureus assessed as reduction in bacterial growth; format: toxicity, cell-based; conditions: read-out: Selectivity Index
Staphylococcus aureus [5] = experiment: Synergistic antibacterial activity against methicillin-resistant Staphylococcus aureus ATCC 43300 incubated for 18 to 20 hrs in presence of gentamicin by checkboard assay; format: functional; conditions: time 18-20 hrs
[6] = Selectivity index, ratio of CC50 for cytotoxicity against human THP-1 cells assessed as reduction in cell viability to MIC for antibacterial activity against methicillin-resistant Enterococcus faecalis assessed as reduction in bacterial growth; format: toxicity, cell-based; conditions: read-out: Selectivity Index
Staphylococcus aureus [7] = experiment: Synergistic antibacterial activity against Staphylococcus aureus ATCC 25923 assessed as linezolid MIC incubated for 18 to 20 hrs by checkboard assay; format: functional; conditions: time 18-20 hrs
Staphylococcus aureus [8] = experiment: Bactericidal activity against Staphylococcus aureus ATCC 25923 assessed as reduction in viable bacterial count incubated for 2 hrs by time-kill assay; format: functional, organism-based
Enterococcus faecium = experiment: Antibacterial activity against vancomycin-resistant Enterococcus faecium ATCC 700221 assessed as reduction in bacterial growth incubated for 18 to 20 hrs by broth microdilution assay; format: functional; conditions: time 18-20 hrs
Staphylococcus aureus [9] = experiment: Synergistic antibacterial activity against methicillin-resistant Staphylococcus aureus ATCC 43300 assessed as fractional inhibitory concentration index incubated for 18 to 20 hrs in presence of ciprofloxacin by checkboard assay; format: functional; conditions: time 18-20 hrs
[10] = test system: Staphylococcus epidermidis; experiment: Antibacterial activity against Staphylococcus epidermidis RP62A assessed as reduction in bacterial growth incubated for 18 to 20 hrs by broth microdilution assay; format: functional; conditions: time 18-20 hrs
Enterococcus faecalis [11] = experiment: Antibacterial activity against Enterococcus faecalis ATCC 29212 assessed as reduction in bacterial growth incubated for 18 to 20 hrs by broth microdilution assay; format: functional; conditions: time 18-20 hrs
A549 = experiment: Cytotoxicity against human A549 cells assessed as reduction in cell viability incubated for 24 hrs by resazurin staining based analysis; format: functional
Staphylococcus aureus [12] = experiment: Synergistic antibacterial activity against Staphylococcus aureus ATCC 25923 assessed as fractional inhibitory concentration index incubated for 18 to 20 hrs in presence of linezolid by checkboard assay; format: functional; conditions: time 18-20 hrs
Staphylococcus aureus [13] = experiment: Synergistic antibacterial activity against methicillin-resistant Staphylococcus aureus ATCC 43300 assessed as ciprofloxacin MIC incubated for 18 to 20 hrs by checkboard assay; format: functional; conditions: time 18-20 hrs
Enterococcus faecalis [14] = experiment: Synergistic antibacterial activity against Enterococcus faecalis ATCC 29212 assessed as linezolid MIC incubated for 18 to 20 hrs by checkboard assay; format: functional; conditions: time 18-20 hrs
Staphylococcus aureus [15] = experiment: Antimicrobial activity against Staphylococcus aureus ATCC 25923 infected in Caenorhabditis elegans AU37 assessed as reduction in number of viable bacteria at 20 uM incubated for 18 hrs; format: functional, organism-based
Enterococcus faecalis [16] = experiment: Synergistic antibacterial activity against Enterococcus faecalis ATCC 29212 assessed as fractional inhibitory concentration index incubated for 18 to 20 hrs in presence of vancomycin by checkboard assay; format: functional; conditions: time 18-20 hrs
Enterococcus faecalis [17] = experiment: Synergistic antibacterial activity against Enterococcus faecalis ATCC 29212 assessed as vancomycin MIC incubated for 18 to 20 hrs by checkboard assay; format: functional; conditions: time 18-20 hrs
Staphylococcus aureus [18] = experiment: Synergistic antibacterial activity against methicillin-resistant Staphylococcus aureus ATCC 43300 assessed as fractional inhibitory concentration index incubated for 18 to 20 hrs in presence of gentamicin by checkboard assay; format: functional; conditions: time 18-20 hrs
Staphylococcus aureus [19] = experiment: Synergistic antibacterial activity against Staphylococcus aureus ATCC 25923 assessed as fractional inhibitory concentration index incubated for 18 to 20 hrs in presence of gentamicin by checkboard assay; format: functional; conditions: time 18-20 hrs
Staphylococcus aureus [20] = experiment: Antibacterial activity against […] Staphylococcus aureus ATCC 43300 assessed as reduction in bacterial growth incubated for 18 to 20 hrs by broth microdilution assay; format: functional; conditions: time 18-20 hrs
Enterococcus faecalis [21] = experiment: Synergistic antibacterial activity against Enterococcus faecalis ATCC 29212 incubated for 18 to 20 hrs in presence of vancomycin by checkboard assay; format: functional; conditions: time 18-20 hrs
Staphylococcus aureus [22] = experiment: Drug resistance, ratio of MIC for Staphylococcus aureus ATCC 25923 after 20 days exposure to MIC for Staphylococcus aureus ATCC 25923 during first exposure; format: functional; conditions: time 20 day
Staphylococcus aureus [23] = experiment: Drug resistance, ratio of MIC for methicillin-resistant Staphylococcus aureus after 20 days exposure to MIC for methicillin-resistant Staphylococcus aureus during first exposure; format: functional; conditions: time 20 day
Enterococcus faecalis [24] = experiment: Antibacterial activity against vancomycin-resistant Enterococcus faecalis ATCC 51575 assessed as reduction in bacterial growth incubated for 18 to 20 hrs by broth microdilution assay; format: functional; conditions: time 18-20 hrs
Erythrocyte = experiment: Hemolytic activity in mouse RBC assessed as hemolysis at 62.5 uM incubated for 1 hr; format: toxicity, cell-based
Staphylococcus aureus [25] = experiment: Synergistic antibacterial activity against Staphylococcus aureus ATCC 25923 assessed as ciprofloxacin MIC incubated for 18 to 20 hrs by checkboard assay; format: functional; conditions: time 18-20 hrs
Staphylococcus aureus [26] = experiment: Antibacterial activity against Staphylococcus aureus ATCC 25923 assessed as inhibition of bacterial growth at 40 uM incubated for 18 to 24 hrs by broth microdilution assay relative to control; format: functional; conditions: time 18-24 hrs
Staphylococcus aureus [27] = experiment: Antimicrobial activity against methicillin-resistant Staphylococcus aureus ATCC 43300 infected in Caenorhabditis elegans AU37 assessed as reduction in bacterial burden at 20 uM incubated for 18 hrs; format: functional; set-up: scale not given: the % may be the effect or the level left
Staphylococcus aureus [28] = experiment: Synergistic antibacterial activity against Staphylococcus aureus ATCC 25923 assessed as fractional inhibitory concentration index incubated for 18 to 20 hrs in presence of ciprofloxacin by checkboard assay; format: functional; conditions: time 18-20 hrs
Staphylococcus aureus [29] = experiment: Bactericidal activity against Staphylococcus aureus ATCC 25923 assessed as log reduction in colony forming units at 0.5 to 8 times MIC measured after 24 hrs by time kill-assay; format: functional
Enterococcus faecalis [30] = experiment: Synergistic antibacterial activity against Enterococcus faecalis ATCC 29212 assessed as fractional inhibitory concentration index incubated for 18 to 20 hrs in presence of linezolid by checkboard assay; format: functional; conditions: time 18-20 hrs
[31] = Hemolytic activity in mouse RBC assessed as hemolysis at 125 uM incubated for 1 hr; format: toxicity, cell-based, Erythrocyte; conditions: mouse red blood cells (erythrocytes), read-out: Activity
Staphylococcus aureus [32] = experiment: Bactericidal activity against Staphylococcus aureus ATCC 25923 assessed as log reduction in colony forming units at 0.5 to 8 times MIC measured after 6 hrs by time kill-assay; format: functional
Cell membrane [33] = experiment: Induction of cell membrane permeability in Staphylococcus aureus ATCC 25923 assessed as increase in fluorescence intensity at 4 times MIC incubated for 30 mins by PI staining based analysis; format: cell membranes
Cell membrane [34] = experiment: Induction of cell membrane damage in Staphylococcus aureus ATCC 25923 at 8 times MIC incubated for 2 hrs by scanning electron microscopic analysis; format: cell membranes
[35] = Cytotoxicity against human THP-1 cells assessed as reduction in cell viability incubated for 24 hrs by resazurin staining based analysis; format: toxicity
Staphylococcus aureus [36] = experiment: Synergistic antibacterial activity against Staphylococcus aureus ATCC 25923 incubated for 18 to 20 hrs in presence of ciprofloxacin by checkboard assay; format: functional; conditions: time 18-20 hrs

In the case of `O=C(O)c1cc2cc(OCc3ccc(C4CCCCC4)c(C(F)(F)F)c3)ccc2[nH]1`, the MIC (Staphylococcus aureus [1]) is reported as 2.5 µM, the MIC (Staphylococcus aureus [2]) is reported as 2.5 µM (≈ 1.04 µg/mL) and the MIC (Staphylococcus aureus [3]) is reported as 2.2 µM. The selectivity ratio [4] was > 12, the MIC (Staphylococcus aureus [5]) was 0.625 µM and the selectivity ratio [6] was > 12. The MIC (Staphylococcus aureus [7]) was 5 µM, the Activity (Staphylococcus aureus [8]) was “Dose-Dependent Effect” and the MIC (Enterococcus faecium) was 5 µM (≈ 2.09 µg/mL). For the same molecule, the “fractional inhibitory concentration index (FICI)” value (Staphylococcus aureus [9]) was 1, the MIC [10] was 2.5 µM (≈ 1.04 µg/mL) and the MIC (Enterococcus faecalis [11]) was 5 µM (≈ 2.09 µg/mL). For the same molecule, the CC50 (A549) was > 100 µM, the “fractional inhibitory concentration index (FICI)” value (Staphylococcus aureus [12]) was 1 and the MIC (Staphylococcus aureus [13]) was 1.25 µM. For the same molecule, the MIC (Enterococcus faecalis [14]) was 10 µM, the Activity (Staphylococcus aureus [15]) was “Active” and the “fractional inhibitory concentration index (FICI)” value (Enterococcus faecalis [16]) was 2. For the same molecule, the MIC (Enterococcus faecalis [17]) was 2.5 µM, the “fractional inhibitory concentration index (FICI)” value (Staphylococcus aureus [18]) was “<=0.5” and the “fractional inhibitory concentration index (FICI)” value (Staphylococcus aureus [19]) was 0.5. For the same molecule, the MIC (Staphylococcus aureus [20]) was 2.5 µM (≈ 1.04 µg/mL), the MIC (Enterococcus faecalis [21]) was 5 µM and the Ratio (Staphylococcus aureus [22]) was 3. The Ratio (Staphylococcus aureus [23]) was 3, the MIC (Enterococcus faecalis [24]) was 10 µM (≈ 4.17 µg/mL) and the Activity (Erythrocyte) was “Non-Toxic”. For the same molecule, the MIC (Staphylococcus aureus [25]) was 0.312 µM, the inhibition at 40 µM (Staphylococcus aureus [26]) was ≤ 90% and the Activity (Staphylococcus aureus [27]) was 88%. The “fractional inhibitory concentration index (FICI)” value (Staphylococcus aureus [28]) was 0.625, the “log(activity)” value (Staphylococcus aureus [29]) was >5 and the “fractional inhibitory concentration index (FICI)” value (Enterococcus faecalis [30]) was 2. The hemolysis at 1 h, 125 µM [31] was 57%, the “log(activity)” value (Staphylococcus aureus [32]) was >3 and the Activity (Cell membrane [33]) was “inactive”. For the same molecule, the Activity (Cell membrane [34]) was “inactive”, the CC50 at 24 h [35] was > 100 µM and the MIC (Staphylococcus aureus [36]) was 2.5 µM.
